Measurements reported in patent US20050118601A1, “Enhancer sequence of the 5-aminolevulinic acid synthase gene” (priority 2002, published 2005).
Like-named read-outs stand apart in the source and are kept apart here.

What was measured:
[1] = tested on: chicken ALAS1 drug responsive enhancer sequence (ADRES) elements; test: Luciferase reporter gene assay of chicken ALAS1 5'-flanking fragments / ADRES elements in transfected LMH cells; type: cell-based; settings: for ADRES activation in reporter assays: PIA 250 μM, glutethimide 500 μM, metyrapone 400 μM, dexamethasone 50 μM, RU-486 10 μM, rifampicin 100 μM, TCPOBOP 10 μM, compared with PB 600 μM
Protocol: The constructs were transfected together with a transfection-control construct expressing β-galactosidase into LMH cells. Cells were then treated with 600 μM PB for 16 h and luciferase assays were performed on the cell extracts. Relative luciferase levels are standardized against cells transfected with vector containing no insert and expressed as fold induction. Experiments were repeated at least three times and data from a representative experiment tested in triplicate are shown here. Error bars represent standard deviations;
Three major subclones were generated from the region upstream of the transcriptional start site, including a 3282 bp SmaI fragment and 5056 bp and 7973 bp EcoRI segments (FIG. 1A). The SmaI clone extends from −167 bp to −3449 bp, whereas the EcoRI subfragments span the regions from −2347 bp to −7402 bp and −7403 bp to −15376 bp, respectively. These subfragments were cloned into the pLucMCS modified luciferase vector containing an SV40 promoter as described in Materials and Methods. Drug inducibility was measured in transiently transfected LMH cells treated with 600 μM PB and compared with control values. […]
The modified enhancers were examined for response to 600 μM PB in luciferase reporter gene assays and the results are presented in FIG. 3.
Leghorn Male Hepatoma (LMH) cells were obtained from the American Type Culture Collection and cultivated in 10 cm dishes in Williams E medium supplemented with 10% FCS, 1% glutamine (2 mM) and 1% penicillin/streptomycin (50 IU/ml). Dishes coated with 0.1% gelatin were used for routine culture of LMH cells in order to facilitate proper seating of the cells onto the plastic plate surface.

ALAS1 mRNA = ALAS1 mRNA quantification (Taqman real-time PCR) in LMH cells; type: cell-based, chicken
Protocol: We next wanted to compare ADRES-mediated ALAS1 induction levels from reporter gene assays with stimulation of transcription in a physiological system. […] In addition, the common CYP3A inducers dexamethasone (50 μM), metyrapone (400 μM), and 10 μM mifepristone (RU-486) were employed for comparison. We were also interested in the effects of […] 5-pregnen-3β-ol-20-one-16α-carbonitrile (PCN) and rifampicin (100 μM) due to their species-specific effects on PXR activation and CYP3A induction. Messenger RNA was reverse transcribed and levels of ALAS1 cDNA were quantified using the Taqman real-time PCR quantification system as described in Materials and Methods. […] This value was chosen to represent 100% induction, against which all other values are compared.
LMH cells were plated onto 12-well plates, expanded to 70-80% surface density and incubated in serum-free media for 24 h. Cells were then exposed to either drug or vehicle and RNA was isolated with Trizol reagent (Gibco BRL) according to the manufacturer protocol. One μg of total RNA was reverse transcribed with the Moloney murine leukemia virus reverse transcriptase kit (Roche Molecular Biochemicals). PCR was performed using the Taqman PCR core reagent kit (PE Applied Biosystems) and transcript levels quantitated with an ABI Prism 7700 sequence detection system (PE Applied Biosystems). Relative transcript levels were determined using the relative quantitation method measuring the ΔΔCt. The following primers and probes were used in these reactions. […] Transcript levels were measured in separate tubes and GAPDH values were used for normalization of ALAS1 values.

[2] = tested on: human ALAS1 gene fragments (hA795, hA174, hA8, hA240); test: Luciferase reporter gene assay of human ALAS1 fragments in LMH cells; type: cell-based; settings: 24 h, 400 μM PB or 250 μM PIA
Protocol: Fragments were cloned into the pGL3 luciferase reporter vector (Promega Corp) and tested for inducibility by the prototypical HALAS1 inducers phenobarbital (PB) and propylisopropylacetamid (PIA). Four hours after transfection of LMH cells with the constructs, cells were exposed to the drugs for 24 hours, after which luciferase activity was assayed. Results were normalized for transfection efficiency by assaying for activity of co-transfected β-galactosidase. Data shown is one representative experiment (FIG. 11).
We investigated in more detail the contribution of various response element half-sites to drug-induction mediated by this element. Within the hA174 element, an arrangement of three nuclear receptor response element half-sites was found, which lead: to the prediction of a DR-4 type, as well as a DR-5 type response element (of. FIG. 18A). By site-directed mutagenesis, we examined the involvement of each of these half-sites to drug induction. In the context of the 2xhA174 reporter construct, each single half-site was mutated in both copies of the hA174 element. The wild-type and mutant constructs were subsequently tested for reporter gene activation in LMH cells as described above. Cells were induced with 400 μM phenobarbital (PB) or 250 μM propylisopropylacetamid (PIA). As a control, vehicle alone (0.1% DMSO) was added to the cells. After 24 hours, luciferase activity was assayed and normalized against co-transfected β-galactosidase activity in order to compensate for transfection efficiency. […] From this, we conclude that the DR-4 element, consisting of the HS1 and HS2 half-sites, is essential for drug induction. The change in induction observed by mutagenesis of the HS3 half-site may indicate a modulatory role for the half-site alone or as a DR-5 in combination with HS2 in drug induction. Data shown are the mean+1SD of three independent experiments.
In order to define a core sequence retaining inducibility, the hA8 fragment (Seq. Id. No. 10), which carries PCR-introduced KpnI and XhoI restriction sites at its ends, was digested with SacI and NsiI. The resulting four fragments, a 100 bp KpnI/SacI fragment, a 374 bp SacI/NsiI fragment, a 240 bp NsiI/NsiI fragment, and a 231 bp NsiI/XhoI fragment, were cloned into a reporter gene vector and subsequently tested for drug induction in LMH cells. Of these fragments, only the 240 bp fragment (called hA240) (Seq. Id. No. 39) was able to convey transcriptional activation in response to drugs. Within the core hA240 fragment, we then mutated both half-sites of a predicted DR-4 element (cf. FIG. 18B) and observed the effect of this mutation on drug induction (240mutDR4). Alteration of the DR4 element half-sites abolished drug induction in LMH cell reporter gene assays. […]

mouse PXR = target: T1, mouse PXR (Mus musculus, UniProt O54915)
T1 sequence (O54915 1-431): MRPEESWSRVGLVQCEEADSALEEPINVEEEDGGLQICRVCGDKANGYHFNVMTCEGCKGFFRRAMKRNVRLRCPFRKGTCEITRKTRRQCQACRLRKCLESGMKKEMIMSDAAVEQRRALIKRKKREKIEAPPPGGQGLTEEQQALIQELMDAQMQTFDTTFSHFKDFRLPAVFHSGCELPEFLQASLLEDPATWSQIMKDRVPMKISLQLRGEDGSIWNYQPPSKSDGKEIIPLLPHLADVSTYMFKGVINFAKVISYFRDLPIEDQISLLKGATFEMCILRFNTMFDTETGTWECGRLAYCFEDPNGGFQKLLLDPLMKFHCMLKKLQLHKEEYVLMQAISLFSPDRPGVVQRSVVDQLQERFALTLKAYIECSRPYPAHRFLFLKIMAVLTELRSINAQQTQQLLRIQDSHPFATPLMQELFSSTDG
Protocol: (§1) To test the effects of the mutations on transcriptional activation, transactivations in CV-1 cells with mouse PXR and mouse CAR and their respective inducers PCN and TCPOBOP, were performed (FIG. 14). The inducible DNA constructs were subcloned into the CAT5 reporter vector and tested for their ability to be transactivated by nuclear receptor transcription factors in CV-1 cells. Mouse PXR (A) and mouse CAR (B) coding regions cloned into the pSG5 expression vector were cotransfected along with a vector expressing pSV β-galactosidase as control. Cells were then treated for 16 h with either drugs (A, PCN; B, TCPOBOP) or vehicle control and cell extracts were analyzed for CAT expression normalized against β-galactosidase levels. Experiments were repeated at least three times and error bars represent standard deviations.

mouse CAR = target: T2, mouse CAR (Mus musculus, UniProt O35627); test: Transactivation of 369 bp ADRES by mouse CAR in CV-1 cells (CAT reporter); type: cell-based
T2 construct: expressed in transfected cells; host or cells: CV-1 cells, pSG5 expression vector
T2 sequence (O35627 1-358): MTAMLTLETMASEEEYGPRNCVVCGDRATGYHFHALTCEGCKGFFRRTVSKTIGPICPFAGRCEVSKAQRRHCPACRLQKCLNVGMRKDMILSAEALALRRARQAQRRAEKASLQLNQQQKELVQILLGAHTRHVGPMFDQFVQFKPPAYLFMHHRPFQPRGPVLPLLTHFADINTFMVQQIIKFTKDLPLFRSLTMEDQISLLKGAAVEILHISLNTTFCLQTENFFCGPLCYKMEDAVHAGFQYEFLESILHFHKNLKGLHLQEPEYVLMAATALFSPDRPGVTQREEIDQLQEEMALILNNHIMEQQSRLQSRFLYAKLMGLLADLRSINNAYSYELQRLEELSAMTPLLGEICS
Protocol: as §1

mouse 369 bp DRES = test: Luciferase reporter gene assay of mouse ALAS1 fragments / 369 bp DRES in LMH cells; type: cell-based; settings: for induction of the 369 bp DRES, ranking of drugs: metyrapone 500 μM, glutethimide 500 μM, PIA 250 μM
Protocol: A 175 bp fragment (441 to 615) (Seq. Id. No. 3) was isolated by digesting the 2.6 kb fragment with SacI/XbaI. All fragments were subcloned in the pGL3LUCpro+MCS vector and the resulting constructs tested for inducibility in LMH reporter gene assay (FIG. 6). […] The 369 bp fragment was termed Drug responsive enhancer sequence DRES.
To compare the 369 bp DRES to other inducible fragments, a series of different drugs was used as inducers: clothrimazole (Clo, 10 μM), dexamethasone (Dex, 50 μM), glutethimide (GE, 500 μM), metyrapone (Met, 500 μM), phenobarbital (PB, 500 μM), PCN (10 μM), propylisopropylacetamide (PIA, 250 μM), rifampicin (Rif, 10 μM), RU486 (10 μM), TCPOBOP (10 μM).
Data shown is from two independent experiments.

CCC1(c2ccccc2)C(=O)NC(=O)NC1=O.[Na] [PB, 5-ethyl-5-phenyl-barbituric acid sodium salt]
PB response of 167 bp ADRES diminished by DR4-3 mutation ([1]; 600 μM PB, LMH cells): 75%
activation of 167 bp ADRES, DR4-2 mutant ([1]; 600 μM PB, LMH cells): 5.4 fold
activation of 176 bp ADRES, DR4-1 mutant ([1]; 600 μM PB, LMH cells): 16 fold
activation of 176 bp ADRES, DR5 mutant ([1]; 600 μM PB, LMH cells): 6.4 fold
activation of wild type 167 bp ADRES ([1]; 600 μM PB, LMH cells): 60 fold
activation of wild type 176 bp ADRES ([1]; 600 μM PB, LMH cells): 44 fold
induction of 167 bp ADRES, DR4-3 mutant ([1]; 600 μM PB, LMH cells): 15 fold
limitation of 176 bp ADRES activation by DR4-1 mutation ([1]; 600 μM PB, LMH cells): over 60%
reduction of 176 bp ADRES activity by DR5 mutation ([1]; 600 μM PB, LMH cells): over 85%
reduction of PB response of 167 bp ADRES by DR4-2 alteration ([1]; 600 μM PB, LMH cells): over 90%
induction over control values, 176 bp and 167 bp elements ([1]; LMH cells exposed to PB): 25-60 fold
transcriptional activation in response to drug treatment, 5056 bp and 3282 bp subfragments ([1]; LMH cells, 600 μM PB): virtually no transcriptional activation
increase in transcriptional activation relative to control values, 7973 bp subfragment ([1]; LMH cells, 600 μM PB, 16 h): 28 fold
activation of the 167 bp element compared to the 176 bp element ([1]; PB 600 μM, LMH cells): twice the activation
ALAS1 RNA levels relative to basal transcript levels (ALAS1 mRNA): 16 fold
effect on ALAS1 mRNA levels (ALAS1 mRNA): strong inducer
inducibility of 2xhA174, HS1 or HS2 half-site mutated [2]: abolishment of inducibility
induction of 2xhA174, HS3 half-site altered [2]: merely reduces induction levels

CC(=O)[C@H]1[C@H](C#N)C[C@H]2[C@@H]3CC=C4C[C@@H](O)CC[C@]4(C)[C@H]3CC[C@@]21C [PCN, 5-pregnene-3β-ol-20-one-16α-carbonitrile]
ADRES activation in reporter assays ([1]; LMH cells, 16 h): minor or no effects
effect on ALAS1 mRNA levels (ALAS1 mRNA): minor or no effects
activation, DR4-1 double mutant (mouse PXR): 1.9 fold
activation, first DR4-2 single mutant (DR4-2/hs1) (mouse PXR): 5.8 fold
activation, second DR4-2 single mutant (DR4-2/hs2) (mouse PXR): 5.3 fold
drug response, both NR binding sites of 369 bp element altered (mouse PXR): elimination of PXR-mediated drug response
induction, 369 bp wild type (mouse PXR): 5.6 fold
induction, DR4-2 double mutant (mouse PXR): 2.5 fold
induction, first DR4-1 single mutant (DR4-1/hs1) (mouse PXR): 2.7 fold
induction, second DR4-1 single mutant (DR4-1/hs2) (mouse PXR): 2.0 fold

CC#C[C@]1(O)CC[C@H]2[C@@H]3CCC4=CC(=O)CCC4=C3[C@@H](c3ccc(N(C)C)cc3)C[C@@]21C [RU-486, Mifepristone]
ADRES activation in reporter assays ([1]; LMH cells, 16 h): minor or no effects
effect on ALAS1 mRNA levels (ALAS1 mRNA; LMH cells, 16 h, PB 600 μM, dexamethasone 50 μM, RU-486 10 μM, rifampicin 100 μM, TCPOBOP 10 μM): minor or no effects

C[C@@]12CCC[C@H]1[C@@H]1CC[C@H]3C[C@@H](O)CC[C@]3(C)[C@H]1CC2 [androstanol]
basal expression exceeding androstanol-treated levels, DR4-2/hs1 single mutant (mouse CAR): 2.5 fold
basal expression exceeding androstanol-treated levels, DR4-2/hs2 single mutant (mouse CAR): 1.9 fold

CCC1(c2ccccc2)CCC(=O)NC1=O (stereo not drawn) [glutethimide, Glutethimide]
ADRES activation in reporter assays ([1]; LMH cells, 16 h): in excess of levels obtained from PB treatment
relative response of the 176 bp element ([1]; glutethimide 500 μM vs metyrapone 400 μM): slightly more affinity for glutethimide than metyrapone
induction of the 369 bp DRES, ranking of drugs (mouse 369 bp DRES): strongest inducer

CC(C)(C(=O)c1cccnc1)c1cccnc1 [metyrapone, 2-methyl-1,2-di-3-pyridyl-propadone]
ADRES activation in reporter assays ([1]; LMH cells, 16 h): in excess of levels obtained from PB treatment
relative response of the 167 bp element ([1]; metyrapone 400 μM vs glutethimide 500 μM): stronger response to metyrapone than glutethimide
induction of mouse 175, 280, 321, 328 and 369 bp fragments (mouse 369 bp DRES; Metyrapone 500 μM): enhanced induction
induction of the 369 bp DRES, ranking of drugs (mouse 369 bp DRES): strongest inducer
